According to patent US20100087516A1, “ANTIBACTERIAL MACROLACTIN A THAT BACILLUS POLYFERMENTICUS KJS-2 PRODUCED IN” (priority 2007, published 2010):
≈ marks a conversion by molar mass, not a printed value. Where two headings read alike, the source gives them in different places.

Legend:
Bacillus subtilis 168 = assay: Antibiotic activity test of HPLC fractions of the culture medium; assay type: cell-based
Protocol: (§1) In order to purify the antibiotic substance produced by strain Bacillus polyfermenticus KJS-2, the seed culture of the strain was diluted into 3 L of TSB medium (TSB agar: Tryptone 17 g, Soytone 3 g, Dextrose 2.5 g, NaCl 5 g, Dipotassium Phosphate 2.5 g, pH 6.8 to 72 to a final concentration of 4% and was cultured for 2.5 days (30° C., 200 rpm, 1 vvm, pH6.8). The culture medium was extracted with […] and analyzed by HPLC under the conditions using a solvent of Step 2 of Example 1, and each peak was fractionated as in FIG. 4. Each fraction was tested for antibiotic activity against Escherichia coli, Bacillus subtilis 168 and Vancomycin-resistant Enterococci. […] FIG. 5 below is the analysis of fraction 1 of FIG. 4 by LC/Mass under the same conditions of Step 2 of Example 1, and the purification was to a purity of 94.63%.

Escherichia coli = assay: as above; assay type: cell-based
Protocol: as §1

[1] = system: Vancomycin-resistant Enterococci; assay: as above; assay type: cell-based
Protocol: as §1

[2] = system: 11 VRE strains, clinically isolated; assay: Minimal inhibitory concentration (MIC>90) in MH II medium; assay type: cell-based, vancomycin-resistant enterococci
Protocol: (§2) The MIC (minimal inhibitory concentration) against VRE and MRSA was measured to test antibiotic activity of Macrolactin A produced by Bacillus polyfermenticus KJS-2, which is the strain of the present invention, against the two strains. The strains used for the experiment were 11 VRE strains and 13 MRSA strains, which were clinically isolated. Each strain used for the experiment was cultured in MH II medium at 200 rpm for 6 hours at 37° C., the absorbance of the medium measured at OD600nm using a UV detector, and then 1 ml aliquot of the medium was spread over MH II agar medium and incubated for 16 hours at 37° C. The number of colonies formed on the agar medium after 16 hours of incubation was counted. Each strain used for experiment was cultured in MH II medium at 200 rpm for 6 hours at 37° C., and the absorbance of the medium was measured at OD600nm using a UV detector. The number of cells were calculated based on the ratio of the number of colonies to the absorbance of the medium, and measured by the above process. Each culture medium was diluted to the final cell concentration of 0.25*10^7 cfu/ml and Macrolactin A was dissolved in the solvent DMSO, while ampicillin, teycoplanin, vancomycin and methillin were dissolved in water. To measure the MIC of Macrolactin A or of the four antibiotics, the mixture of the materials listed in Table 5 and Macrolactin A or the mixture of the materials listed in Table 6 and each of the four antibiotics, respectively in a 500 μl eppendorff tub, was incubated at 200 rpm for 16 hours at 37° C., and then absorbance was measured by a UV/Visible Light detector at 600 nm using a Fluorescence Multi-Detection Reader.

[3] = system: 13 MRSA strains, clinically isolated; assay: as above; assay type: cell-based, methicillin-resistant Staphylococcus aureus
Protocol: as §2

[4] = system: Vancomycin-resistant enterococci; assay: Inhibitory effect on VRE in liquid medium; assay type: cell-based; settings: for average absorbance (OD), Macrolactin A addition group: Average of 11 VRE strains
Protocol: For the experiment with VRE, the strains were inoculated into a liquid medium upto a concentration of 1,000,000 cfu/mL and cultured either with (for strains to be tested) or without (for controls) Macrolactin A. […] […] After 4 hours of culture, the average absorbance of the control group was 0.76, while that of the group cultured with Macrolactin A was 0.19, showing significant difference between the two groups.

[5] = system: a variety of microorganisms and fungi; assay: Spectrum of antibiotic activity (general statement); assay type: cell-based
[6] = system: B16-F10 murine melanoma cancer cell; settings: cited from earlier work
Herpes simplex = settings: cited from earlier work
[7] = system: biosynthesis of cholesterol; settings: cited from earlier work
[8] = system: vancomycin-resistant enterococci (VRE); settings: cited from earlier work
Burkholderia cepacia = settings: cited from earlier work

## CC1CCC/C=C/C=C/C(O)CC(O)C/C=C\C=C\C(O)C/C=C/C=C\C(=O)O1 (centres unmarked) [Macrolactin A]
Bacillus subtilis 168
  antibiotic activity against Bacillus subtilis 168: excellent antibiotic activity
Bacillus subtilis 168; listed as fraction 1
  antibiotic activity against Bacillus subtilis 168: had antibiotic activity
Escherichia coli
  antibiotic activity against Escherichia coli: excellent antibiotic activity
Escherichia coli; listed as fraction 1
  antibiotic activity against Escherichia coli: had antibiotic activity
[1]
  antibiotic activity against Vancomycin-resistant Enterococci: showed antibiotic activity
[2]; 11 VRE strains
  activity relative to teycoplanin (average MIC>90): 4 times
[2]; Average of the 11 VRE strains
  average MIC>90: 31.25 µg/mL
[2]; VRE1
  MIC>90: 31.25 µg/mL (≈ 77.6 µM)
[2]; VRE2
  MIC>90: 31.25 µg/mL (≈ 77.6 µM)
[2]; VRE3
  MIC>90: 31.25 µg/mL (≈ 77.6 µM)
[2]; VRE4
  MIC>90: 31.25 µg/mL (≈ 77.6 µM)
[2]; VRE5
  MIC>90: 15.63 µg/mL (≈ 38.8 µM)
[2]; VRE6
  MIC>90: 31.25 µg/mL (≈ 77.6 µM)
[2]; VRE7
  MIC>90: 31.25 µg/mL (≈ 77.6 µM)
[2]; VRE9
  MIC>90: 31.25 µg/mL (≈ 77.6 µM)
[2]; VRE10
  MIC>90: 31.25 µg/mL (≈ 77.6 µM)
[2]; VRE914
  MIC>90: 62.5 µg/mL (≈ 155 µM)
[2]; VRE915
  MIC>90: 15.63 µg/mL (≈ 38.8 µM)
[3]; 13 MRSA strains
  activity relative to teycoplanin (average MIC>90): 5.3 times
[3]; Average of the 13 MRSA strains
  average MIC>90: 19.83 µg/mL
[3]; MRSA1
  MIC>90: 31.25 µg/mL (≈ 77.6 µM)
[3]; MRSA2
  MIC>90: 15.63 µg/mL (≈ 38.8 µM)
[3]; MRSA3
  MIC>90: 15.63 µg/mL (≈ 38.8 µM)
[3]; MRSA4
  MIC>90: 31.25 µg/mL (≈ 77.6 µM)
[3]; MRSA5
  MIC>90: 31.25 µg/mL (≈ 77.6 µM)
[3]; MRSA6
  MIC>90: 31.25 µg/mL (≈ 77.6 µM)
[3]; MRSA7
  MIC>90: 15.63 µg/mL (≈ 38.8 µM)
[3]; MRSA8
  MIC>90: 7.81 µg/mL (≈ 19.4 µM)
[3]; MRSA8*
  MIC>90: 15.63 µg/mL (≈ 38.8 µM)
[3]; MRSA9
  MIC>90: 15.63 µg/mL (≈ 38.8 µM)
[3]; MRSA10
  MIC>90: 15.63 µg/mL (≈ 38.8 µM)
[3]; MRSA11
  MIC>90: 15.63 µg/mL (≈ 38.8 µM)
[3]; MRSA11*
  MIC>90: 15.63 µg/mL (≈ 38.8 µM)
[4]; culture 4 hours, 50 μg/mL
  average absorbance (OD), Macrolactin A addition group: 0.19 OD
[4]; culture 6 hours, 50 μg/mL
  average absorbance (OD), Macrolactin A addition group: 0.26 OD
[4]; VRE1, culture 4 hours, 50 μg/mL
  OD, Macrolactin A addition group: 0.216 OD
[4]; VRE1, culture 6 hours, 50 μg/mL
  OD, Macrolactin A addition group: 0.207 OD
[4]; VRE2, culture 4 hours, 50 μg/mL
  OD, Macrolactin A addition group: 0.279 OD
[4]; VRE2, culture 6 hours, 50 μg/mL
  OD, Macrolactin A addition group: 0.391 OD
[4]; VRE3, culture 4 hours, 50 μg/mL
  OD, Macrolactin A addition group: 0.240 OD
[4]; VRE3, culture 6 hours, 50 μg/mL
  OD, Macrolactin A addition group: 0.314 OD
[4]; VRE4, culture 4 hours, 50 μg/mL
  OD, Macrolactin A addition group: 0.166 OD
[4]; VRE4, culture 6 hours, 50 μg/mL
  OD, Macrolactin A addition group: 0.180 OD
[4]; VRE5, culture 4 hours, 50 μg/mL
  OD, Macrolactin A addition group: 0.176 OD
[4]; VRE5, culture 6 hours, 50 μg/mL
  OD, Macrolactin A addition group: 0.153 OD
[4]; VRE6, culture 4 hours, 50 μg/mL
  OD, Macrolactin A addition group: 0.171 OD
[4]; VRE6, culture 6 hours, 50 μg/mL
  OD, Macrolactin A addition group: 0.179 OD
[4]; VRE7, culture 4 hours, 50 μg/mL
  OD, Macrolactin A addition group: 0.173 OD
[4]; VRE7, culture 6 hours, 50 μg/mL
  OD, Macrolactin A addition group: 0.133 OD
[4]; VRE8, culture 4 hours, 50 μg/mL
  OD, Macrolactin A addition group: 0.228 OD
[4]; VRE8, culture 6 hours, 50 μg/mL
  OD, Macrolactin A addition group: 0.589 OD
[4]; VRE8 and VRE11, 50 μg/mL, lower sensitivity than the other strains
  growth of VRE8 and VRE11 in liquid medium: notable growth retardation
[4]; VRE11, culture 4 hours, 50 μg/mL
  OD, Macrolactin A addition group: 0.236 OD
[4]; VRE11, culture 6 hours, 50 μg/mL
  OD, Macrolactin A addition group: 0.507 OD
[4]; VRE14, culture 4 hours, 50 μg/mL
  OD, Macrolactin A addition group: 0.078 OD
[4]; VRE14, culture 6 hours, 50 μg/mL
  OD, Macrolactin A addition group: 0.050 OD
[4]; VRE15, culture 4 hours, 50 μg/mL
  OD, Macrolactin A addition group: 0.145 OD
[4]; VRE15, culture 6 hours, 50 μg/mL
  OD, Macrolactin A addition group: 0.131 OD
[4]; nine out of eleven strains tested, 50 μg/mL
  growth of VRE strains in liquid medium: remarkable growth inhibition
[5]
  spectrum of antibiotic activity: broad spectrum of antibiotic activity
[6]
  cytotoxicity on the B16-F10 murine melanoma cancer cell: shows cytotoxicity
Herpes simplex
  antiviral activity against Herpes simplex: antiviral activity
[7]
  inhibitory effect on the biosynthesis of cholesterol: inhibitory effect
[8]
  antibiotic activity against VRE: antibiotic activity only against MRSA
Burkholderia cepacia
  antibiotic activity against Burkholderia cepacia: antibiotic activity only against MRSA
